Our source for the Activity, Kd and IC50 values is ChEMBL document CHEMBL4831538, “Repositioning of the Anthelmintic Drugs Bithionol and Triclabendazole as Transthyretin Amyloidogenesis Inhibitors” (J Med Chem, 2021).

pIC50, pKd: −log10 of the molar value. The source made the active and inactive calls. The calls are words filed in the database; no cut-off is given here.

Assay [1] relates to Transthyretin (Homo sapiens), P02766 [V50M]. Briefly: (§1) Stabilization of TTR V30M mutant (unknown origin) assessed as acid-mediated protein aggregation inhibition ratio incubated for 1 week by absorbance method. The conditions noted are these: time 1.0 weeks.
Assay [2] shares this test system. The assay is described as follows: Stabilization of TTR V30M mutant (unknown origin) assessed as suppression of TTR tetramer dissociation at 1 to 10 uM incubated for 9 days by glutaraldehyde cross-linking assay based SDS-PAGE analysis. The conditions noted are these: dose 1-10 µM, time 9.0 day.
For assay [3], the target named is T1, Transthyretin (Homo sapiens, UniProt P02766, V50M). Briefly: Binding affinity to TTR V30M mutant (unknown origin) expressed in Escherichia coli incubated for 60 mins by tryptophan intrinsic fluorescence method. The settings on record: read-out: Kd(app).
In assay [4] the target is T1, Transthyretin. The assay is described as §1.
Assay [5] concerns the target T1, Transthyretin. The assay is described as follows: Binding affinity to TTR V30M mutant (unknown origin) by isothermal titration calorimetry.
In assay [6] the test system is Transthyretin (Homo sapiens), P02766 [V142I]. The assay is described as follows: Stabilization of TTR V142I mutant (unknown origin) expressed in Escherichia coli assessed as reduction in trypsin-induced aggregation incubated for 3 to 4 days by absorbance method. The conditions noted are these: time 3-4 day.
The target of assay [7] is T2, Transthyretin (Homo sapiens, UniProt P02766). Briefly: Stabilization of wild type TTR (unknown origin) expressed in Escherichia coli assessed as reduction in methanol-induced aggregation incubated for 60 min by absorbance method.
For assay [8], the system named is Transthyretin (Homo sapiens), P02766 [V50M]. The assay is described as follows: Stabilization of TTR V30M mutant (unknown origin) assessed as suppression of TTR tetramer dissociation at 3 uM incubated for 9 days by glutaraldehyde cross-linking assay based SDS-PAGE analysis relative to control. The settings on record: time 9.0 day.
Assay [9] addresses T2, Transthyretin. Briefly: Stabilization of wild type TTR (unknown origin) expressed in Escherichia coli assessed as reduction in methanol-induced aggregation at 50 uM incubated for 60 min by absorbance method.

With `O=C(O)c1cc(-c2ccc(F)cc2F)ccc1O`, the Activity entry in assay [1] was “Dose-Dependent Effect”. Besides, in assay [2], the result was Active.

As to `CC(C)c1ccc2oc3nc(N)c(C(=O)O)cc3c(=O)c2c1` [AMLEXANOX], the pKd at Transthyretin [3] was 4.70.

On to `Oc1c(Cl)cc(Cl)cc1Sc1cc(Cl)cc(Cl)c1O` [BITHIONOL], for which the figures for the pIC50 on Transthyretin [4] and at Transthyretin [7] were 5.62 and 5.52, respectively. Further, the Activity result in [1] was “Dose-Dependent Effect”; in assay [6], “Dose-Dependent Effect”; in [8] it was 100%. Further, in assay [2], the result was Active. The pKd on Transthyretin [5] was 7.21; on Transthyretin [3], 5.96.

As for `Cc1ccc(C(=O)c2cc(O)c(O)c([N+](=O)[O-])c2)cc1`, the Activity result was “Dose-Dependent Effect” in assay [1], “Dose-Dependent Effect” in [6] and 100% in [8]. In addition, the result in assay [2] was Active.

Regarding `O=C(O)c1ccc2nc(-c3cc(Cl)cc(Cl)c3)oc2c1`, the Activity entry in [1] is “Dose-Dependent Effect”; in [6], “Dose-Dependent Effect”; in assay [8], 100%. In addition, the result (in [2]; at Transthyretin [9]) was Active.

For the compound `CSc1nc2cc(Cl)c(Oc3cccc(Cl)c3Cl)cc2[nH]1` [TRICLABENDAZOLE], on Transthyretin [4], the pIC50 was 5.46. Further, the Activity entry in assay [1] was “Dose-Dependent Effect”; in assay [6], “Dose-Dependent Effect”; in [8] it was 100%. Moreover, the result (in assay [2]; on Transthyretin [9]) was Active.

Take `Oc1ccc(Cl)cc1Cc1cc(Cl)ccc1O`: the result in assay [2] was Active.

As to `CC(C)=COc1ccc(/C=C/C(O)c2ccc(OC=C(C)C)cc2OCC(=O)O)cc1` (stereo not drawn), the pKd on Transthyretin [3] is 5.19.
